Assay type in all cases: cell-based
The test system of data set [1] is Hela pTRE-LucIVS2-705 cells. Description: PNA705 mediated luciferase splice correction (luminescence, RLU/μg protein). The method, then:
To assess nuclear cargo delivery and splice correction, PNA705 (SEQ ID NO: 11) was used. Luciferase production was quantified at both the protein (FIG. 6) and mRNA levels (FIG. 7). To quantify functional luciferase levels following splice correction, Hela pLuc705 cells were treated with a 2× serial dilution starting at 5 μM of CPP-PNA705 for 30 minutes in serum free DMEM at 37° C., washed in PBS, and allowed to recover for 24 hours in complete media. To assess the impact of endosomal entrapment and subsequent lysosomal degradation, some cells were co-treated with the endosomal acidification inhibitor chloroquine (120 μM) along with 5 μM CPP-PNA705. Cell lysates were assayed for luciferase by luminescence. To control for total cell density, lysates were also analyzed for total protein by the BCA assay.
Hela pTRE-LucIVS2-705 cells were seeded on flat-bottom 96-well plates at 10,000 cells per well in 200 μl complete DMEM. The following day, cells were washed in phosphate buffered saline and topped with premixed 50 μl 2× serum/phenol red free DMEM (Gibco)+50 μl peptide cleavage solution (ddH2O+peptide). Cells were transfected for 30 min at 37° C. with 5% CO2. The transfection solution was removed, cells were washed with PBS, and topped with 100 μl complete DMEM. The next day (24 hour recovery) cells were washed in PBS and lysed in 20 μl reporter lysis buffer (Promega E4030) following the manufacturers protocol. 10 μl of the lysate was removed and total protein concentration was determined using the bicinchoninic acid assay (Pierce BCA Protein Assay-ThermoFisher 23225). The 96-well plate containing the remaining 10 μl lysate was analyzed for luminescence using the Luciferase Assay System (Promega E1500) on a BioTek SYNERGY™ 2 plate reader with injector ports. Data was expressed as Relative Luminescence Units/μg Protein (RLU/μg Protein) and positive wells were defined as those whose RLU/μg Protein values exceeded the average for the plate by at least three standard deviations. […]

The test system of data set [2] is HeLa, RAW264.7, HepG2, and MCF-7 cells. The data set can be described thus: TAMRA delivery assay (flow cytometry, confocal microscopy). The settings on record: 0.5 μM CPP-TA + 4.5 μM CPP-C, 30 minutes at 4° C., 22° C., or 37° C. The procedure: To determine the effect of the PNA cargo on delivery, we labeled CPPs, lacking the PNA705 cargo, with the fluorophore TAMRA on a C-terminal cysteine residue (CPP-TA) and measured delivery to multiple cell types. TAMRA-labelled CPPs, mixed with unlabeled CPPs at a 1:10 ratio in serum-free DMEM for a final concentration of 5 μM total peptide, was added to HeLa, RAW264.7, HepG2, and MCF-7 cells in 12-well cell culture plates and incubated for 30 minutes at 4° C., 22° C., or 37° C. prior to flow cytometric analysis (FIGS. 9-16). […] Delivery of TAMRA was verified by confocal microscopy for each cell type.
Hela, RAW264.7, HCT116, HepG2, and MCF-7 cells were plated in 12-well plates at 100,000 cells/well. After 24 hours, cells were gently washed in PBS, topped with 500 μl of CPP-TA solution containing 0.5 μM CPP-TA+4.5 uM CPP-C in sfDMEM without phenol red, and incubated for 30 min at either 4° C., 23° C., or 37° C. The incubation solution was aspirated and cells were treated with 100 μl 0.025% Trypsin for 3 minutes at 23° C. 500 μl DMEM containing 2% FBS, 125 nM Sytox Green, and 20 mM HEPES was used to suspend the cells. Cells were transferred to a filter-topped flow cytometry tube and analyzed on a BD™ LSR II flow cytometer. Cells displaying a normal morphology were gated and first analyzed for GFP fluorescence using the 488 nM laser. GFP negative cells were used to generate a histogram of TAMRA fluorescence, measured with the 543 nM laser.
Cells were treated as described above for the TAMRA delivery assay and immediately imaged to avoid artifacts resulting from fixation. The distribution of TAMRA and Sytox Green was analyzed using a confocal scanning Nikon Eclipse Ti2 inverted microscope using a 40× oil-immersion objective. Sytox Green was excited using the 488 nM laser and TAMRA was excited using the 543 nM laser.

Data set [3] has as its system Hela cells stably transfected with mCherry and GFP1-10. Description: Split GFP assay (GFP-11 delivery). The note with it: all concentrations and temperatures studied. The procedure: To test the ability of CPPs to deliver other cargoes, specifically a protease-sensitive peptide cargo, we modified the well-known split-GFP assay. CPPs were tested for the ability to deliver the polar 16-residue GFP-11 peptide across the membrane barrier. This peptide rescues the fluorescence of the cytosolic endogenous, non-fluorescent GFP1-10 protein. Here, we stably transfected Hela cells with a plasmid containing the full length mCherry and the non-fluorescent GFP1-10. Following incubation with CPP-GFP-11 constructs at multiple concentrations and temperatures for 30 minutes in serum free DMEM, cells were analyzed by flow cytometry for mCherry and GFP fluorescence (FIG. 17). Live cells expressing mCherry (˜50% of the total cells) were gated and their GFP fluorescence was analyzed. Unlike the luciferase splice correction assay where a single corrected mRNA transcript serves as template for many molecules of functional luciferase, the split GFP assay is stoichiometric; a single GFP-11 peptide can bind to a single GFP1-10 protein producing a finite fluorescent response.
Hela cells were transfected with p_mCherry-GFP1-10 (Addgene plasmid #78591) using LIPOFECTAMINE® 3000 (ThermoFisher). Single mCherry positive cells were sorted into 96-well plates using a BD™ FACSARIA™ cell sorter and colonies were maintained under G418 selection at […]. Stably transfected cells were plated in 12-well plates at 100,000 cells/well and grown overnight in complete DMEM. Cells were washed in PBS and incubated in 500 μl of CPP-GFP-11 solution at variable concentrations at 23° C. and 37° C. for 30 minutes. The CPP-GFP-11 solution was aspirated and 100 μl of 0.025% trypsin solution was added to each well. After detachment, cells were suspended in 500 μL of PBS+2% FBS and 20 mM HEPES. Cells were analyzed using a BD™ LSRII flow cytometer. Cells displaying a normal morphology were gated and first analyzed for mCherry fluorescence using the 543 nM laser. mCherry+ cells were used to generate a histogram of GFP fluorescence measured with the 488 nM laser.

The next data set has as its system Hela pTRE-LucIVS2 cells. The data set can be described thus: ALAMARBLUE toxicity assay of CPP-PNA705. The note with it: 10 μM CPP-PNA705 conjugate, after 24 hours. The procedure: CPP-PNA705 cytotoxicity was assessed using several methods known in the art. A Lactate Dehydrogenase (LDH) assay (FIG. 5A) measured the acute cytotoxicity and detects LDH released by cells because of membrane damage resulting from exposure to the CPPs. An ALAMARBLUE® assay (FIG. 5B) and a Bicinchoninic Acid (BCA) Assay (FIG. 5C) both measure the impact of exposure after 24 hours. In the ALAMARBLUE®, assay some reduction in metabolic activity was detected in Hela705 cells treated with 20 μM CPP-PNA705 concentrations for 1 hour.
Hela pTRE-LucIVS2 cells were plated in 96-well plates at 10,000 cells/well. After 24 hours, cells were treated with CPP constructs for 1 Hr in sfDMEM at 37° C., washed in PBS, and allowed to recover for 24 hours in 100 μl complete media. 10 μl ALAMARBLUE® (ThermoFisher) was added to each well and cells were incubated fo4r 2 Hrs at 37° C. Reduction of ALAMARBLUE® was determined by fluorescence at […].

A further data set relates to P. aeruginosa biofilms. The data set can be described thus: Activity against P. aeruginosa biofilms. The note with it: 25 μM. The procedure:
Bacterial biofilm formation on implanted medical devices is a serious medical problem because these biofilms can lead to life-threatening systemic infections. We tested selected peptides and rationally designed variants against biofilms formed by P. aeruginosa. […] D-NOGCON reduces viable bacteria by 3.6 logs ( 1/3000 reduction) at 25 μM, while the best conventional antibiotic, Ciprofloxacin, reduced viable bacteria by only 1.7 logs ( 1/55 reduction) at 25 μM.

“Also recorded” adds a separate entry of the source.

In the case of RRRRRRRRR [Arg9, reference compound], the “efficiency of PNA705 delivery in cell culture (words, rank order)” value (“efficiency of PNA705 delivery” below) in data set [1] was “much better than Tat”.
As to RKKRWFRRRRPKWKK [CPP-1], the “TAMRA delivery (words, rank order)” value in data set [2] was “CPP-2»CPP-3=CPP-1>CPP-4>TAT=penetratin”. For the same molecule, in data set [1], the “efficiency of PNA705 delivery” value is reported as “most efficient at PNA delivery”. Also, the “GFP-11 delivery” value in data set [3] was “deliver GFP-11 to more cells than Tat and penetratin; also recorded: most efficient at GFP-11 delivery”. In the data set on Hela pTRE-LucIVS2 cells, the “reduction in metabolic activity” value is on record as 20%.
As to RRKKIWFRRLRMK [CPP-4], in data set [2], the “TAMRA delivery (words, rank order)” value was “CPP-2»CPP-3=CPP-1>CPP-4>TAT=penetratin; also recorded: does not deliver GFP-11 or TAMRA significantly”. Also, the “efficiency of PNA705 delivery” value in data set [1] is on record as “successfully delivers PNA705”. The “GFP-11 delivery” value in data set [3] is “does not deliver GFP-11 or TAMRA significantly”. The “reduction in metabolic activity” value in the data set on Hela pTRE-LucIVS2 cells is reported as “little effect”.
As to `O=C(O)c1cn(C2CC2)c2cc(N3CCNCC3)c(F)cc2c1=O` [Ciprofloxacin, reference compound], in the data set on P. aeruginosa biofilms, the “reduction of viable bacteria in biofilm” value was 1.7 logs.

For the origin of these results see US11266743B2, “Peptide compositions and methods of use thereof” (priority 2017, dated 2022).
